Experimental data reported in article PMC12670426 (Journal of Medicinal Chemistry, 2025).

Legend:
[1] = Plasma stability assay, rat plasma; type: in vitro ADME; conditions: 37 °C
Protocol: (§1) Test compounds (10 μM) were incubated with mouse, rat, or human pooled plasma from 50 donors (Biowest) at 37 °C for 20, 60, and 120 min. Reactions were terminated by adding four volumes of ice-cold methanol, followed by vigorous mixing. Samples were kept at −20 °C for 30 min and then stored at 4 °C overnight. The next day, samples were centrifuged, and supernatants were diluted with four volumes of 30% methanol in water. Zero time points were prepared by adding ice-cold methanol to the compound prior to the addition of plasma. Samples were then analyzed on an Echo MS system (SCIEX) using multiple reaction monitoring (MRM). The only exception was compound 3af, which was analyzed by LC–MS/MS (SCIEX 6500 triple quadrupole) due to its weak ionization in Echo-MS.

[2] = Cytotoxicity assay, HepG2; type: cell-based; conditions: human, HepG2 cells, viability dye, flow cytometry
Protocol: (§2) To evaluate in vitro cytotoxicity and support its potential application in inflammatory and fibrotic disease models, the following panel of cell lines, representing the relevant biological systems, was used: HEK293, HepG2, THP1, Jurkat E6.1, and LX2. HEK293, HepG2, and Jurkat E6.1 cells were seeded at 400,000 cells/mL, THP1 cells at 500,000 cells/mL, and LX2 cells at 200,000 cells/mL in 96-well plates (cell culture-treated, VWR) in 100 μL/well. Cells were treated with the tested compounds in a serial dilution (300, 100, 33.3, 11.1, and 3.7 μM) for 24 h. Untreated cells served as negative controls to establish the baseline viability threshold. Cell viability was assessed using a viability dye (Zombie Violet Fixable Viability Kit, BioLegend) following the manufacturer’s instructions and analyzed by flow cytometry (see below).
(§3) Cells or beads from screening assays prepared for flow cytometry were analyzed by the CytoFlex S instrument (Beckman Coulter). Data acquisition was performed using CytExpert software (v2.5, Beckman Coulter). Debris was excluded by forward and side scatter gating, followed by doublet exclusion. Data were analyzed using FlowJo software (v10, BD Biosciences).

[3] = target: T1, intracellular Gal-3 in THP1 cells (Homo sapiens, UniProt P17931); assay: Intracellular Gal-3 target engagement in THP1 cells (flow cytometry, MFI); type: cell-based; conditions: 2 h
T1 construct: Untreated cells served as negative and baseline controls representing maximum intracellular Gal-3 levels; endogenous in cells; host or cells: THP1 (monocyte-like or PMA-differentiated macrophage-like)
Protocol: THP1 cells were used to assess the binding of the tested compounds to Gal-3. Cells were either maintained in suspension as undifferentiated monocyte-like cells or differentiated into macrophage-like cells by overnight treatment with phorbol 12-myristate 13-acetate (PMA, Sigma-Aldrich) at a final concentration of 10 ng/mL. […] Untreated cells served as negative and baseline controls representing maximum intracellular Gal-3 levels. Cells were then harvested and intracellularly stained either with galectin-3 monoclonal antibody eF660 (Invitrogen, Thermo Fisher Scientific) or a relevant isotype antibody (Invitrogen, Thermo Fisher Scientific) for flow cytometric analyses (see below). A dose-dependent decrease in Gal-3 signal upon compound treatment was used to assess intracellular target engagement expressed as median fluorescent intensity (MFI).
as §3

[4] = Plasma stability assay, human plasma; type: in vitro ADME; conditions: pooled plasma, 37 °C
Protocol: as §1

[5] = test system: LPS-stimulated macrophage-like THP1 cells (TNFα secretion); assay: Anti-inflammatory potential: TNFα secretion in LPS-stimulated PMA-differentiated THP1 cells; type: cell-based, human; conditions: (+)PMA THP1, 1 μg/mL LPS, 24 h, up to 300 μM
Protocol: Cells were differentiated overnight into macrophage-like phenotypes by treatment with 10 ng/mL PMA and subsequently stimulated with 1 μg/mL lipopolysaccharide (LPS; Invitrogen, Thermo Fisher Scientific) to induce a proinflammatory response. […] After 24 h of LPS and compound exposure, cell culture supernatants were collected and analyzed for TNFα levels using a bead-based multiplex immunoassay (ProcartaPlex Human Basic Kit and TNFα Human ProcartaPlex Simplex Kit, both Invitrogen, Thermo Fisher Scientific). Flow cytometry readout was used as previously described. TNFα concentrations were calculated using a standard curve generated in GraphPad Prism 10 (GraphPad Software, San Diego, CA). Cells or beads from screening assays prepared for flow cytometry were analyzed by the CytoFlex S instrument (Beckman Coulter). Data acquisition was performed using CytExpert software (v2.5, Beckman Coulter). Debris was excluded by forward and side scatter gating, followed by doublet exclusion. Data were analyzed using FlowJo software (v10, BD Biosciences).

[6] = Cytotoxicity assay, Jurkat E6.1; type: cell-based; conditions: human, Jurkat E6.1 cells, viability dye, flow cytometry
Protocol: as §2, §3

[7] = target: Gal-3C; conditions: read-out: Kd (Gal-3C); previously reported inhibitor, Figure 1A; ref Galecto Biotech; cited from earlier work
[8] = Cytotoxicity assay, THP1; type: cell-based; conditions: human, THP1 cells, viability dye, flow cytometry
Protocol: as §2, §3

[9] = Plasma stability assay, mouse plasma; type: in vitro ADME; conditions: 37 °C
Protocol: as §1

[10] = Microsomal stability assay, human liver microsomes; type: in vitro ADME; conditions: pooled liver microsomes, pH 7.4, human liver microsomes 0.5 mg/mL, NADPH
Protocol: (§4) Microsomal stability was determined using 0.5 mg/mL of pooled human, mouse, or rat liver microsomes (Thermo Fisher Scientific) in 90 mM TRIS-Cl buffer (pH 7.4) containing 2 mM NADPH and 2 mM MgCl2. Test compounds (10 μM) were added, and the resulting mixture was incubated at 37 °C for 10, 60, 120, and 180 min. The reactions were terminated by the addition of four volumes of ice-cold methanol, followed by vigorous mixing. The samples were left at −20 °C for 30 min and then stored at 4 °C overnight. The next day, samples were centrifuged, and supernatants were diluted with four volumes of 30% methanol in water. Zero time points were prepared by adding ice-cold methanol to the mixture of compounds and cofactors prior to the addition of microsomes. The samples were then analyzed using the Echo-MS system (SCIEX) with MRM transition monitoring, except for compound 3af, which was analyzed by LC–MS/MS as described in the plasma stability assay.

[11] = Cytotoxicity assay, LX2; type: cell-based; conditions: human, LX2 cells, viability dye, flow cytometry
Protocol: as §2, §3

[12] = Cytotoxicity assay, HEK293; type: cell-based; conditions: human, HEK293 cells, viability dye, flow cytometry
Protocol: as §2, §3

[13] = target: Gal-1; conditions: previously reported inhibitor, Figure 1A; ref Galecto Biotech; cited from earlier work
[14] = Cytotoxicity assay, panel of five human cell lines; type: cell-based; conditions: HEK293, HepG2, THP-1, Jurkat E6.1 and LX2 cells; summary in text across panel of five human cell lines
Protocol: as §2, §3

[15] = Microsomal stability assay, mouse liver microsomes; type: in vitro ADME; conditions: pooled liver microsomes, pH 7.4, mouse liver microsomes 0.5 mg/mL, NADPH
Protocol: as §4

[16] = Microsomal stability assay, rat liver microsomes; type: in vitro ADME; conditions: pooled liver microsomes, pH 7.4, rat liver microsomes 0.5 mg/mL, NADPH
Protocol: as §4

T1 sequence (P17931 whole entry): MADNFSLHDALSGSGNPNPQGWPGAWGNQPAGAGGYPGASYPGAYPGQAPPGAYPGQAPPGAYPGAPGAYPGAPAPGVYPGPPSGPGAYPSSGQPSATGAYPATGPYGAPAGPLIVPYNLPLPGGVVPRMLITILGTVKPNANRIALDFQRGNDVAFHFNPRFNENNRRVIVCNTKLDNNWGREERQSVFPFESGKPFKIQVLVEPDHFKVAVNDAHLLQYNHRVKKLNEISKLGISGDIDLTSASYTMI

SMILES: OC[C@H]1O[C@@H](S[C@@H]2O[C@H](CO)[C@H](O)[C@H](n3cc(-c4cccc(F)c4)nn3)[C@H]2O)[C@H](O)[C@@H](n2cc(-c3cccc(F)c3)nn2)[C@H]1O [GB0139, reference compound]
- remaining at 2 h, 10 μM [1]: 78 ± 8%
- CC50 at 24 h [2]: > 300 µM
- intracellular Gal-3 signal (MFI), macrophage-like THP1 cells ([3]; (+)PMA differentiated THP1, 3.7–300 μM): reduced the Gal-3 signal
- intracellular Gal-3 signal (MFI), monocyte-like THP1 cells ([3]; (−)PMA undifferentiated THP1, 3.7–300 μM): minimal effect
- remaining at 2 h, 10 μM [4]: 110 ± 5%
- LPS-induced TNFα secretion [5]: effectively reduced TNFα secretion
- CC50 at 24 h [6]: > 300 µM
- Kd [7]: 0.014 µM
- CC50 at 24 h [8]: > 300 µM
- remaining at 2 h, 10 μM [9]: 68 ± 3%
- microsomal CLint at 10 μM [10]: 12 ± 6 µL/min/mg
- CC50 at 24 h [11]: > 300 µM
- CC50 at 24 h [12]: > 300 µM
- Kd [13]: 0.012 µM
- CC50 at 24 h [14]: > 300 µM
- microsomal CLint at 10 μM [15]: 6 ± 5 µL/min/mg
- microsomal CLint at 10 μM [16]: < 2 µL/min/mg
